Consider nine molecules from US9540343B2 (Gilead Sciences, Inc., priority 2011, dated 2017).

In one data set the test system is HIV-IIIb. The experiment in a line: Test A: Antiviral assay in MT4 cells. The format is cell-based, HIV-1. Conditions: Human immunodeficiency virus 1, IIIB, MT4, 120 h, read-out: % inhibition at 2 μM, percent inhibition of virus-induced cell killing, from dose response curve at 2 uM drug; MT-4 cells infected with HIV-IIIb, 5 days, CellTiter-Glo. (ATP-based viability assays read luminescence as a measure of living cells.)

The next data set in a line: in vitro. Conditions: human, uninfected MT-4 cells, CC50 (nM), same protocol as Test A, CellTiter-Glo. The method, boiled down:
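Cytoprotection read-out: CellTiter-Glo chemiluminescence after 5 days at 37 °C of HIV-IIIb-infected MT-4 cells (m.o.i. 0.003) with compound in 10-point 3-fold dilutions, quadruplicate, 10% FBS. Cytotoxicity (CC50) measured identically without virus.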

On to `NC(=O)c1cc(-c2cccnc2[C@H](Cc2cc(F)cc(F)c2)NC(=O)Cn2cc(CN3CCOCC3)c(C(F)(F)F)n2)ccc1F` [Example 305, (S)-5-(2-(2-(3,5-difluorophenyl)-1-(2-(4-(morpholinomethyl)-3-(trifluoromethyl)-1H-pyrazol-1-yl)acetamido)ethyl)pyridin-3-yl)-2-fluorobenzamide], for which the inhibition (commonly the relative decrease from the control value, in per cent) at 2 µM in the data set on HIV-IIIb was determined as 0%. Also, the CC50 – broadly, the concentration that lowers cell viability or growth by half – at 5 days in “in vitro” was over 53200 nM.
Take `Cc1cc2c(ccn2CC(=O)N[C@@H](Cc2cc(F)cc(F)c2)c2ncccc2-c2ccc(F)c(C(N)=O)c2)cn1` [Example 522, (S)-5-(2-(2-(3,5-difluorophenyl)-1-(2-(6-methyl-1H-pyrrolo[3,2-c]pyridin-1-yl)acetamido)ethyl)pyridin-3-yl)-2-fluorobenzamide]: the inhibition at 2 µM in the data set with HIV-IIIb stood at 4%. The molecule also registered a CC50 at 5 days in “in vitro” of 47900 nM.
For `CC(=O)N1Cc2c(C(F)(F)F)nn(CC(=O)N[C@@H](Cc3cc(F)cc(F)c3)c3ncccc3-c3ccc(F)c(C(N)=O)c3)c2C1` [Example 219, (S)-5-(2-(1-(2-(5-acetyl-3-(trifluoromethyl)-5,6-dihydropyrrolo[3,4-c]pyrazol-1(4H)-yl)acetamido)-2-(3,5-difluorophenyl)ethyl)pyridin-3-yl)-2-fluorobenzamide] the same measures were 1% and over 53200 nM.
`O=C(Cn1nc(C(F)(F)F)c2c1CCCC2)N[C@@H](Cc1cc(F)cc(F)c1)c1ncccc1-c1cccc(F)c1` [Example 117, (S)—N-(2-(3,5-difluorophenyl)-1-(3-(3-fluorophenyl)pyridin-2-yl)ethyl)-2-(3-(trifluoromethyl)-4,5,6,7-tetrahydro-1H-indazol-1-yl)acetamide]: in the data set with HIV-IIIb, the inhibition at 2 µM came out at 89%. In the data set “in vitro”, this molecule yielded a CC50 at 5 days of 8260 nM.
As for `CC1CCCc2c(C(F)(F)F)nn(CC(=O)N[C@@H](Cc3cc(F)cc(F)c3)c3ncccc3-c3cccc(C(N)=O)c3)c21` (stereo partly drawn) [Example 52, 3-(2-((1S)-2-(3,5-difluorophenyl)-1-(2-(7-methyl-3-(trifluoromethyl)-4,5,6,7-tetrahydro-1H-indazol-1-yl)acetamido)ethyl)pyridin-3-yl)benzamide], the inhibition at 2 µM in the data set on HIV-IIIb turned out to be 92%. Besides, in “in vitro”, the midpoint of cytotoxicity, the CC50 at 5 days, lay at 13300 nM.
With `O=C(Cn1cnc2c1CCCC2)N[C@@H](Cc1cc(F)cc(F)c1)c1ncccc1Br` [Example 286, (S)—N-(1-(3-bromopyridin-2-yl)-2-(3,5-difluorophenyl)ethyl)-2-(4,5,6,7-tetrahydro-1H-benzo[d]imidazol-1-yl)acetamide], the inhibition at 2 µM with HIV-IIIb is 0%. Besides, in the data set “in vitro”, it took 25200 nM to reach half-maximal cytotoxicity (CC50 at 5 days).
In the same order, the values of `NC(=O)c1cc(-c2cccnc2[C@H](Cc2cc(F)cc(F)c2)NC(=O)Cn2c(CN3CCOCC3)nc3ccccc32)ccc1F` [Example 577, (S)-5-(2-(2-(3,5-difluorophenyl)-1-(2-(2-(morpholinomethyl)-1H-benzo[d]imidazol-1-yl)acetamido)ethyl)pyridin-3-yl)-2-fluorobenzamide] are 20% and over 53200 nM.
For `NC(=O)c1cc(-c2cccnc2[C@H](Cc2cc(F)cc(F)c2)NC(=O)Cn2nc(C(F)(F)F)cc2C2CCCC2)ccc1F` [Example 168B, (S)-5-(2-(1-(2-(5-cyclopentyl-3-(trifluoromethyl)-1H-pyrazol-1-yl)acetamido)-2-(3,5-difluorophenyl)ethyl)pyridin-3-yl)-2-fluorobenzamide] the same measures were 21% and 11100 nM.
As to `NS(=O)(=O)c1cccc(-c2cccnc2[C@H](Cc2cc(F)cc(F)c2)NC(=O)Cc2c[nH]c3ccc(F)cc23)c1` [Example 428, (S)—N-(2-(3,5-difluorophenyl)-1-(3-(3-sulfamoylphenyl)pyridin-2-yl)ethyl)-2-(5-fluoro-1H-indol-3-yl)acetamide], the inhibition at 2 µM in the data set with HIV-IIIb came to 94%. Also, the CC50 at 5 days in “in vitro” turned out to be 23000 nM.
